In patent US20080200557A1, “Method for Inhibiting Lipid Peroxidation” (CARITAS ST. ELIZABETH HOSPITAL OF BOSTON, INC., priority 2004, published 2008):

What was measured:
[1] = test system: lipid peroxidation induced by lipopolysaccharide (LPS) in mice brain tissues; assay: LPS-induced lipid peroxidation (TBARS/MDA) in mouse brain tissues; assay type: biochemical; conditions: C57BI/6J mouse brain
[2] = test system: lipid peroxidation induced by lipopolysaccharide (LPS) in rat brain tissues; assay: LPS-induced lipid peroxidation (TBARS/MDA) in rat brain homogenates; assay type: biochemical, Fisher 344N male rats; conditions: rat brain homogenate, LPS 400 μg/ml
Method: N-acetyldopamine, melatonin, 2-thiobarbituric acid, and LPS (Escherichia coli 0127:B8) were purchased from Sigma Chemical Co. (St. Louis, Mo.). The formation of thiobarbituric acid reactive substances (TBARS) was used as index of induced oxidative damage to lipid membranes. Lipid peroxidation was induced with LPS (400 μg/ml).
Brain tissues from Fisher 344N male rats were homogenized in 20 mM pH 7.4 Tris buffer. The homogenates were then incubated (1 hr) in solvent alone (control) or in solvent+LPS (400 μg/ml), N-acetyldopamine+LPS, NAS+LPS, melatonin+LPS, and N-acetyldopamine+NAS+LPS (for concentrations of N-acetyldopamine, NAS and melatonin, see Results). TBARS were added, and homogenates were incubated for 20 min. in a boiling water bath. After cooling, the absorbance was measured spectrophotometrically at 532 nm. TBARS concentrations were derived from a standard curve of MDA (Oxis International, Portland, Oreg.). Protein was determined by Lowry method (Sigma Chem. Co., St. Louis, Mo.). Results are expressed as mean+S.D. (n=6). Data was treated by one-way ANOVA and Student's t-test.

toxic effect of LPS = conditions: laboratory animals; cited from earlier work
septic shock = conditions: patients suffering from septic shock; cited from earlier work
[3] = test system: lipid peroxidation induced by FeCl2 in mice brain tissues; assay: FeCl2-induced lipid peroxidation (TBARS/MDA) in mouse brain tissues; assay type: biochemical, mice C57BI/J6; conditions: FeCl2 1 mM
Method: The effect of N-substituted dopamine derivatives on FeCl2-induced oxidative damage was evaluated in mice C57BI/J6 brain tissues.
Brain tissues from C57BI/J6 […] were homogenized in 20 mM pH 7.4 Tris buffer. The homogenates were then incubated (1 hr) in solvent alone (control) or in solvent+FeCl2, N-acetyldopamine+FeCl2, N-methyldopamine (deoxyepinephrine)+FeCl2, 3-methoxyldopamine+FeCl2, and 4-methoxydopamine (3-hydroxy-4-methoxy phenethylamine HCl)+FeCl2. TBARS were added, and homogenates were incubated for 20 min. in a boiling water bath. After cooling, the absorbance was measured spectrophotometrically at 532 nm. TBARS concentrations were derived from a standard curve of MDA (Oxis International, Portland, Oreg.). Protein was determined by Lowry method (Sigma Chem. Co., St. Louis, Mo.). Results are expressed as mean +S.D. (n=6). Data was treated by one-way ANOVA and Student's t-test

[4] = test system: LPS-induced hypotensive shock; conditions: rats; cited from earlier work
LPS lethal effect = conditions: mice; cited from earlier work

In the case of `COc1cc(CCN)ccc1O` [3-methoxydopamine, 4-hydroxyl-3-methoxy phenethylamine], the “effect on LPS-induced lipid peroxidation (MDA formation), in words” value ([1]; FIGS. 6-7) is reported as “inhibited LPS-induced formation of MDA in C57BI/6J mouse brain in a dose-dependent manner” and the “inhibition of LPS-induced formation of MDA” value ([1]; at 200μ, FIG. 6) is reported as 50%.

In the case of `COc1ccc2[nH]cc(CCNC(C)=O)c2c1` [Melatonin, melatonin], the “concentration reaching statistically significant inhibition of LPS-induced lipid peroxidation” value ([2]; FIG. 3) is listed as 800 µM, the “effect on toxic effect of LPS” value (toxic effect of LPS) is listed as “counteract the toxic effect of LPS” and the effect on lethality (septic shock) is listed as “prevent lethality”.

With `CC(=O)NCCc1ccc(O)c(O)c1` [N-acetyldopamine] the “concentration from which inhibition of LPS-induced formation of MDA starts” value ([2]; 1 hr incubation, FIG. 1) was 50 µM, the “concentration reaching complete inhibition of LPS-induced formation of MDA” value ([2]; 1 hr incubation, FIG. 1) was 200 µM and the “effect on LPS-induced lipid peroxidation (MDA formation), in words” value ([2]; FIGS. 1-2) was “inhibited LPS-induced formation of MDA in a dose-dependent manner”.

For `CNCCc1ccc(O)c(O)c1` [N-methyldopamine, N-methyldopamine (deoxyepinephrine)], the “concentration from which inhibition of FeCl2-induced formation of MDA starts” value ([3]; FIG. 10) was 25 µM, the “concentration reaching complete inhibition of FeCl2-induced formation of MDA” value ([3]; FIG. 10) was 200 µM and the “effect on FeCl2-induced formation of MDA, in words” value ([3]; FIGS. 8-12) was “most prominent effect”.

In the case of `CC(=O)NCCc1c[nH]c2ccc(O)cc12` [NAS, N-acetylserotonin], the “protection against LPS-induced hypotensive shock” value [4] is listed as “protects rats against LPS-induced hypotensive shock” and the “protection against LPS lethal effect” value (LPS lethal effect) is listed as “protects”.
